Source: patent US5610282A (The United States of America as represented by the …, priority 1995, dated 1997)

Target: T1, D1 dopamine receptor (Rattus norvegicus, UniProt P18901)
T1 construct: The longest open reading frame in this cDNA codes for a 487 residue protein; expressed in transfected cells; host or cells: COS-7 cells (transient, plasmid pSRalpha-D1)
Format: cell-based
Settings: agonist 1 uM, with 0.5 uM propranolol

T1 sequence (P18901 whole entry): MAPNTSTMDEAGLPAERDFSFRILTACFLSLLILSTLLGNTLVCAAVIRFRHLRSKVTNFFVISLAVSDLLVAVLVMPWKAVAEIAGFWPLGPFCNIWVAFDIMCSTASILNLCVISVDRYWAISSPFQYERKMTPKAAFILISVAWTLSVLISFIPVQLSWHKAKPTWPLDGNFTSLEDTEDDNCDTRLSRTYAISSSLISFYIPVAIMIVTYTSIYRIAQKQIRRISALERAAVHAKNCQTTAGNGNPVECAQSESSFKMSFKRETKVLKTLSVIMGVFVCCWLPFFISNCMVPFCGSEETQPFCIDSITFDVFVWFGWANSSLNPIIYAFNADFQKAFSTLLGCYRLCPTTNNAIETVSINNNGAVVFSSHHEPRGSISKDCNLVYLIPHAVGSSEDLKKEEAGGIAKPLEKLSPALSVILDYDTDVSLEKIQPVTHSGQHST

| Structure (SMILES) | stimulation of cAMP accumulation (in words) |
| --- | --- |
| Oc1cc2c(cc1O)C(c1ccccc1)CNCC2 (stereo not drawn) [SKF-38393 (-)isomer, SKF-38393] | lower potency |
| CNC[C@H](O)c1ccc(O)c(O)c1 [epinephrine] | low potency relative to dopamine |
